From patent publication US6331555A, “Treatment of platelet derived growth factor related disorders such as cancers” (priority 1999, dated 2001)
Where two headings read alike, the source gives them in different places.

What was measured:
[1] = test system: NIH3T3 cells overexpressing the human PDGF-b receptor; assay: PDGF-stimulated cell cycle progression, flow cytometry; assay type: cell-based, mouse
Experimental: NIH3T3 mouse fibroblasts overexpressing the human PDGF-β receptor were seeded in DMEM supplemented with 10% CS and 2 mM GLN. Cells were grown to about 80% confluence and then treated overnight in serum-free medium (DMEM, 2 mM GLN, 2 mM NEAA, 2 mM NaPyr, and 2 mM HEPES). […] Cells were then collected, strained and analyzed by flow cytometry for DNA content.
The percentage of cells in the S phase of the cell cycle was determined by flow cytometry.
The cells were analyzed for DNA content by flow cytometry.

A172 = assay: Tumor cell line growth; assay type: cell-based; settings: Homo sapiens, A 172, 96 h; glioma, 4 days
Experimental: (§1) The assay measures protein content of acid-fixed cells using the counterion binding dye sulforhodamine B (SRB, Sigma). […] For other cell lines, the cells (2000 cells/well in 100 μL) were introduced into wells immediately after dispensing the drug solutions. After 4 days (37° C., 5% CO2) the monolayers were washed 3 times with PBS and fixed with 200 μL ice-cold 10% TCA (Fisher Scientific), and kept at 4° C. for 60 min. The TCA was removed and the fixed monolayers were washed 5 times with tap water and allowed to dry completely at room temperature on absorbent paper. The cellular protein was stained for 10 min with 100 μL 0.4% SRB dissolved in 1% acetic acid. After 5 washes with tap water, the dye was solubilized in 10 mM Tris base (100 μL per well) and absorbance read at 570 nm on a Dynatech plate reader model MR5000. Growth inhibition data are expressed as a percentage of absorbance detected in control wells which were treated with 0.4% DMSO alone. DMSO controls were not different from cells grown in regular growth medium. IC50 values were determined using a four parameter curve fit function.
(§2) For K562, DlB, L1210, 7TDl, T27A, and Colo320 DM cells, an MTT assay was used to assess cell growth. […] The cells were incubated at 37° C. for 4 days in a humidified 7% CO2 atmosphere. At the end point, […] of MTT (5 mg/mL in PBS, Sigma) was added to each well. The plates were incubated at 37° C. for 4 hr followed by addition of […] of solubilization solution (20% w/v of SDS in 50% N, N-dimethylformamide, pH 4.7) to each well. The plates were incubated overnight in a sealed container with a humidified atmosphere. The absorbance was determined at 570 nm wavelength with a reference wavelength of 630 nm using an ELISA plate reader.

A375 = assay: Tumor cell line growth; assay type: cell-based; settings: Homo sapiens, A-375, 96 h; melanoma, 4 days
Experimental: as §1, §2

A431 = assay: Tumor cell line growth; assay type: cell-based; settings: Homo sapiens, A-431, 96 h; epidermoid, 4 days
Experimental: as §1, §2

A549 = assay: Tumor cell line growth; assay type: cell-based; settings: Homo sapiens, A549, 96 h; lung, 4 days
Experimental: as §1, §2

BT549 = assay: Tumor cell line growth; assay type: cell-based; settings: Homo sapiens, BT-549, 96 h; breast, 4 days
Experimental: as §1, §2

Calu-6 = assay: Tumor cell line growth; assay type: cell-based; settings: Homo sapiens, Calu-6, 96 h; lung, 4 days
Experimental: as §1, §2

Colo 320DM = assay: Tumor cell line growth; assay type: cell-based; settings: Homo sapiens, 96 h, colon, 4 days
Experimental: as §1, §2

MCF7/HER2 = assay: Tumor cell line growth; assay type: cell-based; settings: Homo sapiens, MCF7, 96 h; breast, 4 days
Experimental: as §1, §2

MDA MB 468 = assay: Tumor cell line growth; assay type: cell-based; settings: Homo sapiens, MDA-MB-468, 96 h; breast, 4 days
Experimental: as §1, §2

Ovcar3 = assay: Tumor cell line growth; assay type: cell-based; settings: Homo sapiens, OVCAR-3, 96 h; ovarian, 4 days
Experimental: as §1, §2

PA-1 = assay: Tumor cell line growth; assay type: cell-based; settings: Homo sapiens, PA-1, 96 h; ovarian, 4 days
Experimental: as §1, §2

SF763 = assay: Tumor cell line growth; assay type: cell-based
Experimental: as §1, §2

SF767 = assay: Tumor cell line growth; assay type: cell-based
Experimental: as §1, §2

T98G = assay: Tumor cell line growth; assay type: cell-based; settings: Homo sapiens, 96 h, glioma, 4 days
Experimental: as §1, §2

U1240 = assay: Tumor cell line growth; assay type: cell-based; settings: 96 h; glioma, 4 days
Experimental: as §1, §2

U1242 = assay: Tumor cell line growth; assay type: cell-based; settings: 96 h; glioma, 4 days
Experimental: as §1, §2

U373MG = assay: Tumor cell line growth; assay type: cell-based; settings: Homo sapiens, U373 MG, 96 h; glioma, 4 days
Experimental: as §1, §2

U87MG = assay: Tumor cell line growth; assay type: cell-based; settings: Homo sapiens, U-87 MG, 96 h; glioma, 4 days
Experimental: as §1, §2

U87MG cells = assay: Intracerebral U87MG tumor, athymic mice, survival; assay type: in vivo, human; settings: IC U87MG; control 60 days; P=0.15
C6 cells = assay: CTL generation in tumor-bearing rats (MLTC); assay type: in vivo, rat; settings: 8.4 mg/kg/day
Experimental: Wistar rats received SC implants of C6 cells on day 0. […] The control group was not treated after tumor implantation. On day 21, the animals were sacrificed and the spleens were removed for in vitro analyses. Splenocytes were stimulated with ConA, LPS, and alloantigen (DA rat spleen cells) as in the murine studies.
The spleen cells from Wistar rats were also assayed for the generation of C6-specific CTL in the MLTC and the results summarized in Table XXI. Spleen cells from tumor-bearing, untreated animals mounted a vigorous CTL response (35% specific lysis at E:T=100:1), while cells from non-tumor bearing control rats mounted a weak response (13% specific lysis at E:T=100:1). Similar to the studies in BALB/c mice, it appeared that the vehicle inhibited the generation of CTL in a 7-day culture.

in vivo = settings: mouse, ip
Experimental: The LD50 was calculated from a plot of % mortality versus dose (log M) using a four parameter logistic equation.

## Cc1oncc1C(=O)Nc1ccc(C(F)(F)F)cc1 [Compound A10, 5-methylisoxazole-4 carboxylic acid-(4-trifluromethyl)-anilide]
[1]
  number of cells progressing to the S phase in response to PDGF: dose-dependent decrease in the number of cells progressing to the S phase
A172
  IC50: 32 µM
A375
  IC50: 25 µM
A431
  IC50: 34 µM
A549
  IC50: 118 µM
BT549
  IC50: > 400 µM
Calu-6
  IC50: 70 µM
Colo 320DM
  IC50: 34 µM
MCF7/HER2
  IC50: 116 µM
MDA MB 468
  IC50: 150 µM
Ovcar3
  IC50: > 100 µM
PA-1
  IC50: 40 µM
SF763; SF763, 96 h, glioma, 4 days, read-out: IC50
  IC50: 110 µM
SF763; SF763, PDGF-R expression -, read-out: SRB
  IC50: > 100 µM
SF767; SF767, 96 h, glioma, 4 days, read-out: IC50
  IC50: 87 µM
SF767; SF767, PDGF-R expression -, read-out: SRB
  IC50: 100 µM
T98G
  IC50: 62 µM
U1240
  IC50: 250 µM
U1242
  IC50: 19 µM
U373MG
  IC50: 115 µM
U87MG
  IC50: 78 µM
U87MG cells
  mean survival: 65 days
C6 cells
  CTL generation: did not overcome the inhibitory effect of the vehicle in immunocompetent rats
C6 cells; Tumor stimulus
  CTL activity: 0
In vivo
  LD50: 145 mg/kg
